“Also recorded” adds a separate entry of the source. Where a name gives a salt, the structure may show the parent alone. Read-outs that look alike come from different tables or passages of the source.
Experiments:
[1] = test system: Am5-HT1; set-up: method as in PMID 20349263; details: cited from earlier work
[2] = test system: Pea5-HT1; set-up: method as in PMID 20233210; details: cited from earlier work
[3] = target: T1, Trica5-HT1 (Tribolium castaneum, UniProt R9ULB8); test: Aequorin-luminescence assay, agonist activation of Trica5-HT1 in CHO-WTA11 cells (apoaequorin + Gα16); type: cell-based; details: for response at 100 µM agonist: Figure 3A; for agonist behaviour: dose-response 1 pM to 1 mM; for response at concentrations ≤100 µM: results not shown
Description: (§1) General binding studies were performed in Chinese hamster ovary (CHO) WTA11 cells stably coexpressing apoaequorin and the promiscuous Gα16. This allowed us to measure the pharmacology independent of the downstream signaling. CHO-PAM28 cells stably expressing apoaequorin, but not the promiscuous Gα16, and human embryonic kidney cells (HEK) 293 cells were used to measure downstream signaling via Ca^2+ and cAMP, respectively. CHO cell lines were provided by Prof. Marc Parmentier (University of Brussels, Belgium) and Dr. Michel Detheux (Euroscreen S.A., Belgium). HEK293 cells were a gift from Prof. Arnd Baumann (Research Centre Jülich, Germany.
(§2) Cells were cultured in vitro as monolayers at 37°C, 5% CO2 and high relative humidity, and subcultivated twice a week. For transfection of CHO cells, 2.5 ml Opti-MEM®I (Invitrogen), 5 µg plasmid DNA and 12.5 µl Plus^TMreagent (Invitrogen) were mixed, stored at room temperature for 5 min and next repleted with 30 µl Lipofectamine™LTX (Invitrogen). After 30 min incubation at room temperature, this transfection mixture was added dropwise to the cells together with 5 ml medium. HEK293 cells were cotransfected with receptor construct (4 µg) and CRE-luciferase construct (2 µg), consisting of the open reading frame of the reporter gene, luciferase, downstream of a multimerized cAMP-response-element (CRE6x), [39]. All transfections were performed in T75 flasks with a confluency of about 60 percent. Cells were grown overnight, after which 15 ml of medium was added for an additional overnight incubation period.
(§3) The transfected CHO cells were detached with phosphate buffered saline (PBS) containing 0.2% EDTA and collected in DMEM/F-12 (without phenol red, with L-glutamine and 10 mM HEPES) (Gibco). The amount of viable cells was determined using the NucleoCounter NC-100+TM (Chemometic). Cells were pelleted for 4 min at 800 rpm at room temperature and resuspended in BSA-medium (DMEM/F12 without phenol red, with L-glutamine and 10 mM HEPES, supplemented with 0.1% bovine serum albumin) to a concentration of 5×10^6 cells/ml. Coelenterazine H (Invitrogen) was added to a final concentration of 5 µM, and cells were gently shaken for 4 h at room temperature in the dark. After a 10-fold dilution in BSA-medium, cells were incubated another 30 min. The pharmacological ligands were dissolved in BSA-medium. For agonists, 50 µl containing the final ligand concentration was added to appropriate wells of a 96-well plate. For antagonists, 25 µl of the antagonist solution was supplemented with 25 µl of a 5-HT solution. Receptor activity was measured as the light emission after adding 50 µl of the cell suspension. Light emission was measured for 30 s using a Mithras LB940 (Berthold Technologies). Subsequently, cells were lysed with Triton X-100 (0.1% in BSA-medium) and light emission was recorded for another 8 s. BSA-medium was used as a negative control. Light emission from each well was calculated relative to the total response (ligand+Triton X-100) using the output file of Mikrowin2000 software (Mikrotek). Further analysis was done in Graphpad Prism 5.
In order to pharmacologically characterize Trica5-HT1, we used CHO-WTA11 cells stably expressing apoaequorin and the promiscuous Gα16 subunit. […] The dose-response relationship for 5-HT and these synthetic agonists was examined at concentrations ranging from 1 pM to 1 mM (Figure 3B). […] Since the efficacy achieved by any agonist depends on the number of receptors expressed, we measured a dose-response curve for 5-HT in every experiment and normalized all agonist effects to the maximum 5-HT response, set at 100% (Figure 3B).

[4] = target: T1, Trica5-HT1; test: Aequorin-luminescence assay, antagonist inhibition of 5-HT mediated activation of Trica5-HT1 in CHO-WTA11 cells; type: cell-based; details: for inhibition of 5-HT induced responses (words): antagonist 10 nM to 1 mM; for logIC50 (mean ± SEM) / IC50: CHO-WTA11 cells; for nature of inhibition: 5-HT dose-response in presence of different antagonist concentrations; for inhibition of activation by 100 nM 5-HT at high concentrations (≥1 mM): antagonist ≥1 mM
Description: as §1, §2, §3
Potential antagonists were tested by simultaneously applying 5-HT (100 nM) and a high dose of antagonist (100 µM) to Trica5-HT1 expressing cells (Figure 4A). In addition, the dose-dependence of the antagonistic effects were measured with antagonist concentrations ranging from 10 nM to 1 mM (Figure 4B). […] We used the Gaddum/Schild plot to compare the inhibitory potencies of the antagonists by their pA2 values (i.e. the […] of the concentration of antagonist that doubles the amount of 5-HT required for obtaining the same effect).

[5] = receptor activation in CHO-WTA11 cells, given as negative log values
[6] = receptor activation in CHO-WTA11 cells, read-out: EC50
[7] = inhibition of 5-HT (100 nM) mediated activation, given as negative log values
[8] = inhibition of 5-HT (100 nM) mediated activation, read-out: IC50
[9] = inhibition of 5-HT (100 nM) mediated activation
[10] = logIC50 (mean ± SEM), inhibition of 5-HT (100 nM) mediated activation, given as negative log values
[11] = IC50, inhibition of 5-HT (100 nM) mediated activation

T1 sequence (R9ULB8 entry or part of it): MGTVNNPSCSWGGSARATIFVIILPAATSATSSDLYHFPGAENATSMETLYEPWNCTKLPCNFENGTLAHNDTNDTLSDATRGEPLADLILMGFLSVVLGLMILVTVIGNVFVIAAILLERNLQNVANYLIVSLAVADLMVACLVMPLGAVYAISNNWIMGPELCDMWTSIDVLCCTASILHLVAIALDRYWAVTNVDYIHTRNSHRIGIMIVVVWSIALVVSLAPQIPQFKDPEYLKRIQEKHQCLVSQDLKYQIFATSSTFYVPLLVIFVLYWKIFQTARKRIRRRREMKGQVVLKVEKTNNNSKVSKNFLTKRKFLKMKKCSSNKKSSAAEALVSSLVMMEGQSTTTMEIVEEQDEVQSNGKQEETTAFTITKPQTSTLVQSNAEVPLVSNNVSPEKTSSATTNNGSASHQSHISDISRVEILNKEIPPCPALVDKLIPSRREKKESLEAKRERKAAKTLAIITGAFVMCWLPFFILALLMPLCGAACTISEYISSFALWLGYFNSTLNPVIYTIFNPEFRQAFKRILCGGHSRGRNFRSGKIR

## CCCN(CCC)C1CCc2cccc(O)c2C1 (racemic) [8-OH-DPAT, (±)-8-hydroxy-2-(dipropylamino)tetralin hydrobromide]
[1]
  agonist behaviour: poor agonist
[2]
  agonist behaviour: poor agonist
[3]; CHO-WTA11 cells
  concentrations at which responses were evoked: ≥ 100 µM
  response at 100 µM agonist: Significant responses
  agonist behaviour: very poor response
[3]; EC50, receptor activation in CHO-WTA11 cells
  EC50: 551 µM
[3]; logEC50 (mean ± SEM), receptor activation in CHO-WTA11 cells, given as negative log values
  EC50: 550 µM

## NCC(O)c1ccc(O)cc1 (racemic) [octopamine, DL-octopamine hydrochloride]
[3]; CHO-WTA11 cells
  response at concentrations ≤100 µM: did not generate any detectable responses

## NCCc1c[nH]c2ccc(C(N)=O)cc12.O=C(O)/C=C\C(=O)O [5-CT, 5-carboxamidotryptamine maleate]
[3]; CHO-WTA11 cells
  response at 100 µM agonist: Significant responses
  agonist behaviour: partial agonists
[3]; [5]
  logEC50 (mean ± SEM): −4.61±0.17
[3]; [6]
  EC50: 24.7 µM

## COc1ccc2[nH]cc(CCN)c2c1 [5-MT, 5-methoxytryptamine]
[3]; CHO-WTA11 cells
  response at 100 µM agonist: Significant responses
  agonist behaviour: partial agonists
[3]; receptor activation in CHO-WTA11 cells, given as negative log values, read-out: logEC50 (mean ± SEM) (converted)
  EC50: 91.2 µM
[3]; [6]
  EC50: 91.8 µM

## CC1CCN(CC[C@H]2CCCN2S(=O)(=O)c2cccc(O)c2)CC1.Cl [SB-269970, SB-269970 hydrochloride]
[4]; 5-HT 100 nM
  inhibition of 5-HT induced responses (words): Moderate inhibition; also recorded: more effective inhibition
[4]; [7]
  logIC50 (mean ± SEM): −3.69±0.25
[4]; [8]
  IC50: 205 µM

## COc1ccccc1N1CCN(CCN(C(=O)C2CCCCC2)c2ccccn2)CC1 [WAY-100635, N-{2-[4-(2-methoxyphenyl)-1-piperazinyl]-ethyl}-N-(2-pyridinyl) cyclohexanecarboxamide]
[1]
  antagonist behaviour: partial antagonist
[2]
  inhibition of agonist stimulated receptor: effective inhibition
[4]; 5-HT 100 nM
  inhibition of 5-HT induced responses (words): no clear dose-dependent effect
[4]; [9]
  IC50: no clear dose-dependence of inhibition
[4]; [7]
  logIC50 (mean ± SEM): no clear dose-dependence of inhibition

## CC(C)(C)[C@]1(O)CCN2C[C@H]3c4ccccc4CCc4cccc(c43)[C@@H]2C1 [butaclamol, (+)-butaclamol hydrochloride]
[4]; 100 µM, with 5-HT 100 nM
  agonistic effects at high concentration: some agonistic effects
[4]; 5-HT 100 nM
  inhibition of 5-HT induced responses (words): no detectable inhibition
[4]; [10]
  IC50: 204 µM

## Cl.NCCc1ccc(O)c(O)c1.NCCc1ccc(O)c(O)c1 [dopamine, 3-hydroxytyramine (dopamine) hydrochloride]
[3]; CHO-WTA11 cells
  response at concentrations ≤100 µM: did not generate any detectable responses

## O=C(c1ccc(F)cc1)C1CCN(CCn2c(=O)[nH]c3ccccc3c2=O)CC1 [ketanserin, ketanserin (+)-tartrate]
[4]; 5-HT 100 nM
  inhibition of 5-HT induced responses (words): no detectable inhibition
[4]; [9]
  IC50: no inhibition
[4]; [7]
  logIC50 (mean ± SEM): no inhibition

## CSc1ccc2c(c1)C(N1CCN(C)CC1)Cc1ccccc1S2 (stereo not drawn) [methiothepin, methiothepin mesylate]
[4]; 5-HT 100 nM
  inhibition of 5-HT induced responses (words): effective dose-dependent inhibition
[4]; 5-HT 100 nM, listed as Methiothepin
  inhibition of 5-HT induced responses (words): dose-dependent inhibition
[4]
  nature of inhibition: competitive antagonists
  inhibition of activation by 100 nM 5-HT at high concentrations (≥1 mM): completely inhibited
[4]; Gaddum/Schild plot, 5-HT dose-response in presence of 10 nM to 1 mM antagonist, read-out: pA2 (± SEM) (converted)
  Kb: 0.676 µM
[4]; inhibition of 5-HT (100 nM) mediated activation, given as negative log values, read-out: logIC50 (mean ± SEM) (converted)
  IC50: 16.2 µM
[4]; [8]
  IC50: 16.4 µM

## CC[C@@H](CO)NC(=O)[C@@H]1C=C2c3cccc4c3c(cn4C)C[C@H]2N(C)C1 [methysergide, methysergide maleate]
[4]; 5-HT 100 nM
  inhibition of 5-HT induced responses (words): effective dose-dependent inhibition
[4]
  nature of inhibition: competitive antagonists
  inhibition of activation by 100 nM 5-HT at high concentrations (≥1 mM): completely inhibited
[4]; [11]
  IC50: 34 µM
[4]; [10]
  IC50: 33.9 µM

## COc1cc2nc(N3CCN(C(=O)c4ccco4)CC3)nc(N)c2cc1OC [prazosin, prazosin hydrochloride]
[4]; 5-HT 100 nM
  inhibition of 5-HT induced responses (words): effective dose-dependent inhibition
[4]
  nature of inhibition: competitive antagonists
  inhibition of activation by 100 nM 5-HT at high concentrations (≥1 mM): completely inhibited
[4]; [11]
  IC50: 1.39 µM
[4]; [10]
  IC50: 1.38 µM

## NCCc1ccc(O)cc1 [tyramine, tyramine hydrochloride]
[3]; CHO-WTA11 cells
  response at concentrations ≤100 µM: did not generate any detectable responses

## COC(=O)[C@@H]1[C@H]2C[C@H]3c4[nH]c5ccccc5c4CCN3C[C@@H]2CC[C@@H]1O [yohimbin, yohimbine hydrochloride]
[4]; 5-HT 100 nM, even at concentrations up to 100 µM
  inhibition: about 30%

## CC(N)Cc1c[nH]c2ccc(O)cc12.O=C(O)/C=C\C(=O)O (stereo not drawn) [αm-5-HT, α-methylserotonin maleate]
[3]; CHO-WTA11 cells
  response at 100 µM agonist: Significant responses
[3]; EC50 compared with 5-HT, CHO-WTA11 cells
  fold less potent than 5-HT: more than 100 fold
[3]; [5]
  logEC50 (mean ± SEM): −4.97±0.18
[3]; [6]
  EC50: 10.7 µM

Source: article PMC3669024, “Pharmacological Characterization of a 5-HT1-Type Serotonin Receptor in the Red Flour Beetle, Tribolium castaneum” (PLoS ONE, 2013)
